For test [1], the target named is GBA2 (Danio rerio, UniProt E7F5W0). The test can be described thus: In vivo inhibition in zebrafish larvae, read out by cABPP with ABP 10, GBA2. Also noted: species or system zebrafish (Danio rerio). From the text:
We further investigated the affinity of 1 and 2 towards β‐D‐glucosidases in living animals using zebrafish (Danio rerio) embryos, which express both GBA and GBA2. Following exposure for 5 days, fish larvae were sacrificed and lysed, and cABPP with ABP 10 was used to detect residual active β‐D‐glucosidase molecules in the lysates and for IC50 determination. […] Aziridine compound 2 is also selective against GBA over GBA2, albeit with a narrower selectivity window (Figure 6A–C). We noted that the apparent IC50 in zebrafish embryo is much […] than the observed in intact cells despite the longer incubation time, which could be a result of poorer bioavailability of the cyclophellitol‐related structures in whole animal, as noted earlier by us.[36]
Figure 6 In vivo inhibitory effect of β‐D‐xylo‐configured compounds on β‐glucosidases in zebrafish (Danio rerio) larvae. (A) Larvae were exposed to 5 dpf with the indicated inhibitor 1 or 2 in the medium. Larvae were lysed and incubated with fluorescent ABP 10. Fluorescently labeled proteins were visualized after SDS‐PAGE, only GBA and GBA2 were assessed in zebrafish larvae model. (B) Apparent IC50 values towards β‐glucosidases (GBA and GBA2) were determined by the fluorescence quantification based on cABPP results. (C) In vivo inhibition curves. (D) GlcSph levels in zebrafish larvae were determined as described in experiment section, n=2 replicates.
ABP labeling procedure: Glycosidases were labeled with excess fluorescent ABPs at optimum conditions. ABP labeling was performed at 37 °C for 30 min for all materials (if not otherwise stated), in a total sample volume of 20–40 μL and 0.5–1 % DMSO concentration. GBA was labeled with 200 nM ABP 9 (pH 5.2, 0.1 % (v/v) Triton‐100, 0.2 % (w/v) sodium taurocholate), or labeled together with GBA2 using 200 nM β‐D‐glucose‐configured aziridine ABP 10 at pH 5.8, or labeling together with GBA2 and GBA3 using 200 nM β‐D‐glucose‐configured aziridine ABP 10 at pH 6.0. After ABP incubation, proteins were denatured by boiling the samples with 5× Laemmli buffer (50 % (v/v) 1 M Tris‐HCl, pH 6.8, 50 % (v/v) 100 % glycerol, 10 % (w/v) DTT, 10 % (w/v) SDS, 0.01 % (w/v) bromophenol blue) for 5 min at 98 °C, and separated by electrophoresis on 10 % (w/v) SDS‐PAGE gels running continuously at 90 V. Wet slab‐gels were scanned on fluorescence using the Typhoon FLA 9500 (GE Healthcare) at λEX 473 nm and λEM≥510 nm for green fluorescent ABP 8; and at λEX 635 nm and λEM≥665 nm for ABP 6, 9 and 10. ABP‐emitted fluorescence was quantified using ImageQuant software (GE Healthcare, Chicago, IL, USA) and curve‐fitted using Prism 8.0 (GraphPad Software). After fluorescence scanning, SDS‐PAGE gels were stained for total protein with Coomassie G250 and scanned on a ChemiDoc MP imager (Bio‐Rad, Hercules, CA, USA).[25]
Inhibition of enzymes in zebrafish larvae: Experiments were performed with 5 dpf larvae. For inhibitor treatment, a single fertilized embryo was seeded in a well of a 96‐wells plate, and exposed to 200 μL corresponding inhibitor for 115 hours at 28.5 °C. Per condition, n=24 embryos were used. At 115 hours (5 dpf), larvae were collected, rinsed three times with egg water, fully aspirated, snap‐frozen in liquid nitrogen and stored at −80 °C until homogenization in 96 μL 25 mM potassium phosphate buffer per 24 individuals. Lysis was conducted by sonication with a Polytron PT 1300D sonicator (Kinematica, Luzern, Switzerland) on ice at 20 % power for three seconds, and repeated three times. […]

Test [2] addresses T1, rhGBA (recombinant human GBA, Imiglucerase) (Homo sapiens, UniProt P04062, R534H).
T1 construct: purchased Sanofi Genzyme (Cambridge, MA, USA)
T1 sequence (P04062 40-536 R534H): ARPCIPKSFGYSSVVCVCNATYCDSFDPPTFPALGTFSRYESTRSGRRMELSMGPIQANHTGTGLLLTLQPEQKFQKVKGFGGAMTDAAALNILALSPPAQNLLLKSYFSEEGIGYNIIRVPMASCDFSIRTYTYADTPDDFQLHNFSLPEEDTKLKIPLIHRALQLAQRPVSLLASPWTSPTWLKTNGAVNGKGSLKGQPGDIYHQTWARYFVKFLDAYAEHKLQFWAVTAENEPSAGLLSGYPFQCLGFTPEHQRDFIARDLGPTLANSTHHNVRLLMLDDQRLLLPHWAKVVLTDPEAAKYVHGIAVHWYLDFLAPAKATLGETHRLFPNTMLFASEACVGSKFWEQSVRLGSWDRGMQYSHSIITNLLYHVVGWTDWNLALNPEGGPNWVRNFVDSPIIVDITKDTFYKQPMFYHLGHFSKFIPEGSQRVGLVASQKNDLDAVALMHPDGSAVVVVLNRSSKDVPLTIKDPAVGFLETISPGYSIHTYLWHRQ
The test can be described thus: Fluorogenic substrate (4-MU-β-D-glucoside) enzymatic assay, rhGBA. The format is biochemical. As to conditions: for IC50: enzymatic assay performed for 3 h, n=3, read-out: In vitro apparent IC50 rhGBA, 3 h.

Setting [3] is: IC50 ratio, zebrafish larvae 5 dpf.

Like-named read-outs stand apart in the source and are kept apart here.

GBA2, sequence (E7F5W0 entry or part of it): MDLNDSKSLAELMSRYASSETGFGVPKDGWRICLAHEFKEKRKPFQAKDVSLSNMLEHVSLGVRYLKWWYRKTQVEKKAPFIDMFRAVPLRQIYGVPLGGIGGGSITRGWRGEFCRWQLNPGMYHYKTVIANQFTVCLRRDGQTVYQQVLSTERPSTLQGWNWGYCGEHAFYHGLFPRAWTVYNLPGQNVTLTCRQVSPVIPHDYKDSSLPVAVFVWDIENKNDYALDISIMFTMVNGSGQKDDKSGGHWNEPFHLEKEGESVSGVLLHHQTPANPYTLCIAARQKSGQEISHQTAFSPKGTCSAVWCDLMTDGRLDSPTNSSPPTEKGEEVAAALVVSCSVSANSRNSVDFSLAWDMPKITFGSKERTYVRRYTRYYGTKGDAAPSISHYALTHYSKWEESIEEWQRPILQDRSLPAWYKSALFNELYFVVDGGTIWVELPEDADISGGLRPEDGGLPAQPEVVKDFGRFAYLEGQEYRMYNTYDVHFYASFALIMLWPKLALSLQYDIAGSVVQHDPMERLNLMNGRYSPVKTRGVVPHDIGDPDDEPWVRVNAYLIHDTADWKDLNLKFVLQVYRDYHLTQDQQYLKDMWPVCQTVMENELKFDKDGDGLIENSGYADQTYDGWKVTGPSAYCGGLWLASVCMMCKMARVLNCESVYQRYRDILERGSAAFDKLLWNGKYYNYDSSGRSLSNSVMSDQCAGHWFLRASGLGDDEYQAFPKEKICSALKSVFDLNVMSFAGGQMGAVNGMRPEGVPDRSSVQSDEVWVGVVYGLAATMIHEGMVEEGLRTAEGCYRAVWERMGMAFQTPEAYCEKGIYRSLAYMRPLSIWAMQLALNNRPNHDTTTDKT

With `O[C@@H]1[C@@H](O)[C@H](O)C[C@H]2O[C@@H]12` [compound 1, xylo‐cyclophellitol], in test [1] (150 μM, exposure for 5 days), the “effect on ABP labelling of GBA2 in zebrafish at 150 μM” value was “without targeting GBA2”. The “GBA2/GBA ratio, zebrafish larvae” value in test [1] (setting [3]) is over 50. The 50% inhibitory concentration (IC50) is over 150000 nM in test [1] (larvae exposed to 5 dpf, inhibitor in the medium, cABPP quantification; read-out: Zebrafish larvae IC50 GBA2) and 450 ± 20 nM in test [2].
In the case of `O[C@@H]1[C@@H](O)[C@H](O)C[C@H]2N[C@@H]12` [compound 2, β‐D‐xylo‐Cyclophellitol aziridine], the “GBA2/GBA ratio, zebrafish larvae” value in test [1] (setting [3]) is recorded as 21. The IC50 stood at 150000 nM in test [1] (read-out: Zebrafish larvae IC50 GBA2; larvae exposed to 5 dpf, inhibitor in the medium, cABPP quantification) and 240 ± 30 nM in test [2]. Also, in test [2] (in vitro 3 h), the “increase in inhibitory activity towards GBA of aziridines relative to epoxide analogues” value was “less than two‐fold increase”.

In general, IC50 refers to the midpoint of a concentration-inhibition curve.

These data come from paper PMC8596838, “Xylose‐Configured Cyclophellitols as Selective Inhibitors for Glucocerebrosidase” (Chembiochem, 2021).
